This is an account of results in BindingDB's records for doi:10.1016/j.ejmech.2020.112655 (University of Michigan, 2020).

The experiment has as its target Eukaryotic translation initiation factor 4E (Homo sapiens, UniProt P06730). As to the kind of experiment: Binding affinity to recombinant human 10His-tagged eIF4E expressed in Escherichia coli BL21 (DE3) cells assessed as dissociation constant by surface plasmon resonance analysis.

Bridge positions count the residues as written; N and C are the ends. Peptide text beside a SMILES is read from it.

Eukaryotic translation initiation factor 4E, sequence (P06730 whole entry): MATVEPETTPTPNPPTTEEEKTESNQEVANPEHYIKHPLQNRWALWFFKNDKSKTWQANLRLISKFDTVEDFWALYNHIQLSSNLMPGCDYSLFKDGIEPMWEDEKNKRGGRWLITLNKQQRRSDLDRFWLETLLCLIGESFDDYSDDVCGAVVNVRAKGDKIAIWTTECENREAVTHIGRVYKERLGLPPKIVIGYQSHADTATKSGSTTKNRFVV

Regarding `CC[C@H](C)[C@H](NC(=O)[C@H](CCCNC(=N)N)NC(C)=O)C(=O)N[C@H](C(=O)N[C@@H](Cc1ccc(O)cc1)C(=O)N[C@@H](CC(=O)O)C(=O)N[C@@H](CCCNC(=N)N)C(=O)N[C@H]1CCC(=O)NCCCC[C@@H](C(=O)N[C@@H](CS)C(=O)N[C@@H](CCCNC(=N)N)C(N)=O)NC(=O)[C@H](CCSC)NC(=O)[C@H](CC(C)C)NC(=O)[C@H](Cc2ccccc2)NC1=O)[C@@H](C)CC` (Ac-RIIYDREFLMKCR-NH2; lactam 7-11), the koff was determined as 0.0069 s⁻¹.
In the case of `CC[C@H](C)[C@H](NC(=O)[C@H](CCCNC(=N)N)NC(C)=O)C(=O)N[C@H](C(=O)N[C@@H](Cc1ccc(O)cc1)C(=O)N[C@@H](CC(=O)O)C(=O)N[C@@H](CCCNC(=N)N)C(=O)N[C@H]1CCCCNC(=O)CC[C@@H](C(=O)N[C@@H](CS)C(=O)N[C@@H](CCCNC(=N)N)C(N)=O)NC(=O)[C@H](CCSC)NC(=O)[C@H](CC(C)C)NC(=O)[C@H](Cc2ccccc2)NC1=O)[C@@H](C)CC` (Ac-RIIYDRKFLMECR-NH2; lactam 7-11) it was 0.0042 s⁻¹.
